Results published in PubChem BioAssay AID1549 (Sanford-Burnham Center for Chemical Genomics, 2009).
Activity calls are given as the source filed them. No rule for the calls is given here.

Target: Influenza A virus M2 proton channel (A/TW/4845/1999 H1N1)
Assay: M2 proton channel binding, NMR based, influenza A virus H1N1 strain (AID 1549)
Conditions: NMR binding screen, M2 protein

SMILES	Kd
Nc1cccc(C(=O)c2ccccc2)c1	> 4 mM (inactive)
O=C(NC(=S)NC1CCS(=O)(=O)C1)c1ccccc1 (stereo unspecified)	> 4 mM (inactive)
COC(=O)Nc1nc2c(C)cccc2s1	> 4 mM (inactive)
C/C=C/C=N/NC(=O)c1ccc(=O)n(C)c1	> 4 mM (inactive)
Nc1cccc(-n2cnnn2)c1	> 4 mM (inactive)
OC1CSc2ncnn2C1 (stereo unspecified)	> 4 mM (inactive)
O=C(Cn1cnc2ccccc2c1=O)N1CCOCC1	> 4 mM (inactive)
Cc1cc(C)n(-c2nc(N)cc(=O)[nH]2)n1	> 4 mM (inactive)
O=C(Oc1ccc(-c2nnco2)cc1)N1CCOCC1	> 4 mM (inactive)
CN1CCN(c2ncnc3nc[nH]c23)CC1	> 4 mM (inactive)
O=C(O)C1CCN(c2ccc(C(F)(F)F)cn2)CC1	> 4 mM (inactive)
Nc1ccncc1	> 4 mM (inactive)
COc1ccc(-c2cc(=O)c3c(OC)c(OC)c(OC)c(OC)c3o2)cc1	> 4 mM (inactive)
O=C(CC1SC(=O)NC1=O)Nc1nccs1 (stereo unspecified)	> 4 mM (inactive)
OCC1COc2ccccc2C1 (stereo unspecified)	> 4 mM (inactive)
O=C(c1nc2ccccc2s1)N1CCSCC1	> 4 mM (inactive)
NCc1nnnn1-c1ccccc1	> 4 mM (inactive)
O=S1(=O)C=CC(N2CCCCC2)C1 (stereo unspecified)	> 4 mM (inactive)
Nc1cc(C(=O)N2CCCC2)cc(C(=O)N2CCCC2)c1	> 4 mM (inactive)
CSc1nc(NC(C)(C)C)nc(N2CCOCC2)n1	> 4 mM (inactive)
Cc1sc2nc(-c3ccco3)oc(=O)c2c1C	> 4 mM (inactive)
O=C(O)C1CNc2ccccc2O1 (stereo unspecified)	> 4 mM (inactive)
O=C(Nc1ccccc1F)c1ccncc1	> 4 mM (inactive)
CC1(O)CC2C(CC1O)C2(C)C (stereo unspecified)	> 4 mM (inactive)

SMILES	Kd
CCNC(=S)Nc1c(C)n(C)n(-c2ccccc2)c1=O	> 4 mM (inactive)
O=C(CC1Nc2ccccc2NC1=O)Nc1ccc(O)cc1 (stereo unspecified)	> 4 mM (inactive)
Cc1nn(C)c(Cl)c1C(O)c1c(C)nn(C)c1Cl	> 4 mM (inactive)
OCc1ccc2c(c1)OCCCO2	> 4 mM (inactive)
S=C(c1cccnc1)N1CCOCC1	> 4 mM (inactive)
COc1cc(O)c(C(C)=O)c(OC)c1	> 4 mM (inactive)
S=c1oc(-c2ccncc2)nn1CCc1ccncc1	> 4 mM (inactive)
Cc1cc(=O)n2[nH]c(N)nc2n1	> 4 mM (inactive)
COc1ccc(S(=O)(=O)NCCO)cc1	> 4 mM (inactive)
COc1cccc(O)c1O	> 4 mM (inactive)
C/C=C(\C)C(=O)OC1[C@@H]2C=C3C(CC[C@]4(C)C3CC(=O)O[C@H]4c3ccoc3)C(C)(C2=O)[C@@H](C(O)C(=O)OC)C1(C)C (stereo partly specified)	> 4 mM (inactive)
Cc1cc(C)n2c(SCc3c(C)noc3C)nnc2n1	> 4 mM (inactive)
Cc1cc(C(=O)N2CCOCC2)c(C)o1	> 4 mM (inactive)
COc1ccc(N2CC(=O)NC2=O)cc1	> 4 mM (inactive)
CCOC(=O)N1CCCC1c1cccnc1 (stereo unspecified)	> 4 mM (inactive)
CC1(C)C2CC(=O)[C@]3(C)C(CC[C@@]4(C)[C@H](c5ccoc5)OC(=O)[C@H]5O[C@]543)[C@@]2(C)C=C[C@@H]1O (stereo partly specified)	> 4 mM (inactive)
COC(=O)CCSCC(=O)Nc1nnc(C)s1	> 4 mM (inactive)
C/C=C(\C)C(=O)O[C@H]1C[C@@H](OC(C)=O)[C@@]2(C(=O)OC)CO[C@@H]3C2[C@]12CO[C@](O)(C(=O)OC)[C@H]2[C@](C)(C12O[C@@]1(C)[C@H]1C[C@@H]2OC2OC=C[C@@]21O)[C@@H]3O (stereo partly specified)	> 4 mM (inactive)
CC(C)NS(=O)(=O)c1ccc(N)cc1	> 4 mM (inactive)
CC(=O)O[C@H]1CCC2(C)C3=C(CCC2C1(C)C)[C@]1(C)CCC(C(C)CCC=C(C)C)[C@@]1(C)CC3 (stereo partly specified)	> 4 mM (inactive)
NC(=O)CSc1nc2ccccc2[nH]1	> 4 mM (inactive)
Cn1c(O)c(/C=C2\C=CC=N2)c(=O)[nH]c1=O	> 4 mM (inactive)
Cc1ccc(N)nc1	> 4 mM (inactive)
CC(C)n1c(-c2ccncc2)n[nH]c1=S	> 4 mM (inactive)

SMILES	Kd
COc1ccc(C)cc1S(=O)(=O)NC1CCCC1	> 4 mM (inactive)
NC(=O)CC1Nc2cccc3cccc(c23)NC1=O (stereo unspecified)	> 4 mM (inactive)
O=C(NCc1ccccc1Cl)c1cnn2cccnc12	> 4 mM (inactive)
CN1CCN(C(=O)c2ccco2)CC1	> 4 mM (inactive)
CSc1ccccc1NC(=O)c1ccco1	> 4 mM (inactive)
COc1c(-c2ccccc2)oc2c(OC)cccc2c1=O	> 4 mM (inactive)
CCC(C)C(=O)O[C@H]1[C@H](O)C2C(CN3CC(C)CCC3[C@@]2(C)O)C2C[C@]34O[C@]5(O)C(OC(=O)C(C)(O)CC)CC[C@@]3(C)C5C(OC(C)=O)[C@@H](OC(C)=O)C4[C@@]21O (stereo partly specified)	> 4 mM (inactive)
O=C(NCc1ccco1)c1nc2ncccn2n1	> 4 mM (inactive)
CN1CCN(C(=O)/C=C\C(=O)O)CC1	> 4 mM (inactive)
OC1CCN(Cc2ccc[nH]2)CC1	> 4 mM (inactive)
Cc1cc(C)n(-c2nncn2N)n1	> 4 mM (inactive)
CC(=O)Nc1cccc(N2CCCC2=O)c1	> 4 mM (inactive)
O=C(Nc1cnccn1)c1ccncc1	> 4 mM (inactive)
c1ccc(Cc2nnc3sc(-c4cccnc4)nn23)cc1	> 4 mM (inactive)
CCOC(=O)c1cc(C)[nH]n1	> 4 mM (inactive)
O=c1[nH]cc(N2CCCCC2)c(=O)[nH]1	> 4 mM (inactive)
CC(C)NC1CS(=O)(=O)CC1O (stereo unspecified)	> 4 mM (inactive)
CSc1nnc(-c2ccccc2NC(C)=O)o1	> 4 mM (inactive)
c1ccc2c(c1)nnn2C1CCNCC1	> 4 mM (inactive)
O=c1cc(-c2ccccc2)oc2cc(O)cc(O)c12	> 4 mM (inactive)
O=C(Nc1ccc2c(c1)OCO2)c1c(F)cccc1F	> 4 mM (inactive)
O=C(/C=C/c1ccc(O)c(O)c1)O[C@@H]1C[C@](O)(C(=O)O)C[C@@H](O)[C@H]1O	> 4 mM (inactive)
O=C(O)CCC1=C2c3ccccc3CCN2C(=O)CC1	> 4 mM (inactive)
COc1cc(C)nc(N(CCO)CCO)n1	> 4 mM (inactive)

SMILES	Kd
CCn1c(=O)cc(N2CCC3(CC2)OCCO3)[nH]c1=O	> 4 mM (inactive)
Nc1nc(-c2cccnc2)nn1C(=O)Cc1ccccc1	> 4 mM (inactive)
COCC(=O)Nc1cccc(Br)c1	> 4 mM (inactive)
O=C(Nc1cccnc1)c1ccc(Br)s1	> 4 mM (inactive)
CC1=C(/C=C/C(C)=C/C=C/C(C)=C/C=C/C=C(C)/C=C/C=C(C)/C=C/C2=C(C)CCCC2(C)C)C(C)(C)CCC1	> 4 mM (inactive)
Cc1cc(C(=O)Nc2cccnc2)no1	> 4 mM (inactive)
CCN1CCC(NC2CCCCNC2=O)CC1 (stereo unspecified)	> 4 mM (inactive)
C/C=C/c1ccc2c(c1)OCO2	> 4 mM (inactive)
C[C@H](CCC(=O)O)[C@H]1CCC2C3C(CC[C@@]21C)[C@@]1(C)CC[C@@H](O)C[C@H]1C[C@@H]3O (stereo partly specified)	> 4 mM (inactive)
CC(CCC(=O)O)[C@H]1CCC2C3CC[C@@H]4C[C@H](O)CC[C@]4(C)C3CC[C@@]21C (stereo partly specified)	> 4 mM (inactive)
COc1cc2c(cc1OC)[C@@]13CCN4CC5=CCOC6CC(=O)N2C1[C@H]6[C@H]5C[C@H]43 (stereo partly specified)	> 4 mM (inactive)
O=C(NCc1ccco1)c1cccc(F)c1	> 4 mM (inactive)
O=C(c1ccc2c(c1)OCO2)N1CCC2(CC1)OCCO2	> 4 mM (inactive)
O=C(O)c1ccc(-n2ccnc2)cc1	> 4 mM (inactive)
CC(=O)NN1C(=O)/C(=C\c2ccc(O)cc2)SC1=S	> 4 mM (inactive)
C[C@@H]1CC[C@@]2(OC1)O[C@H]1CC3C4CC[C@H]5C[C@@H](O)CC[C@]5(C)C4CC[C@]3(C)[C@H]1[C@@H]2C (stereo partly specified)	> 4 mM (inactive)
NS(=O)(=O)c1ccc(F)cc1	> 4 mM (inactive)
Cc1nc(-c2cccc(-c3noc(C)n3)c2)no1	> 4 mM (inactive)
CC1(NC(=O)NCc2ccccc2)CCS(=O)(=O)C1 (stereo unspecified)	> 4 mM (inactive)
Nc1ccccc1N1CCOCC1	> 4 mM (inactive)
Cc1cc(C)n(CCCC(=O)O)n1	> 4 mM (inactive)
C[C@H]1[C@H]2CCC3C4CC=C5C[C@@H](N(C)C)CC[C@]5(C)C4CC[C@@]32CN1C (stereo partly specified)	> 4 mM (inactive)
Cn1c(CNc2ccccc2)cc(=O)n(C)c1=O	> 4 mM (inactive)
NC(=O)C1CCCN1S(=O)(=O)c1ccc(F)cc1 (stereo unspecified)	> 4 mM (inactive)

SMILES	Kd
C[N+](C)(C)CC(O)CC(=O)O (stereo unspecified)	> 4 mM (inactive)
CC1=NN2C(=N)CC(=O)N=C2S1	> 4 mM (inactive)
CC(=O)Nc1nc(C)nc(-c2ccccc2)c1C(C)=O	> 4 mM (inactive)
COc1ccc2c(c1)OC[C@@H](Cc1ccc(OC)c(OC)c1)[C@@H]2O	> 4 mM (inactive)
c1ccc(SCc2nc(-c3ccccn3)no2)cc1	> 4 mM (inactive)
COc1cccc(-c2csc(NC(C)=O)n2)c1	> 4 mM (inactive)
O=C1c2ccncc2C(=O)N1CNc1ccccn1	> 4 mM (inactive)
COc1ccc(C(=O)NC2=NCCS2)cc1OC	> 4 mM (inactive)
O=c1c(-c2ccccc2)coc2cc(O)cc(O)c12	> 4 mM (inactive)
Cc1noc(C)c1C(=O)NCc1ccco1	> 4 mM (inactive)
Nc1ccccc1-n1cccn1	> 4 mM (inactive)
Nc1ccc(C(=O)NCC2CCCO2)cc1 (stereo unspecified)	> 4 mM (inactive)
CN1CCC(N2CCN(C)CC2)CC1	> 4 mM (inactive)
O=C1Nc2ccccc2C1(O)Cc1ccncc1 (stereo unspecified)	> 4 mM (inactive)
O=C(O[C@@H]1Cc2c(O)cc(O)cc2O[C@@H]1c1ccc(O)c(O)c1)c1cc(O)c(O)c(O)c1	> 4 mM (inactive)
O=C(Nc1nccs1)c1ccc(=O)[nH]n1	> 4 mM (inactive)
COCC(=O)Nc1cc2c3c(c1)CCN3C(=O)CC2	> 4 mM (inactive)
CCOC(=O)Cc1nc2ccccc2[nH]1	> 4 mM (inactive)
O=C(O)Cn1nc(-c2ccccc2)c2ccccc2c1=O	> 4 mM (inactive)
O=c1c[n+]([O-])c2ccccc2n1OCc1ccccn1	> 4 mM (inactive)
